According to PMC5055294 (PLoS ONE, 2016):

Legend:
Type in all cases: cell-based
[1] = target: T1, CMKLR1 (Homo sapiens, UniProt Q99788); assay: ERK1/2 phosphorylation in MEF cells, CMKLR1; parameters: expressed in transfected cells; settings: PTX pre-treatment, 300 nM chemerin
T1 sequence (Q99788 1-373): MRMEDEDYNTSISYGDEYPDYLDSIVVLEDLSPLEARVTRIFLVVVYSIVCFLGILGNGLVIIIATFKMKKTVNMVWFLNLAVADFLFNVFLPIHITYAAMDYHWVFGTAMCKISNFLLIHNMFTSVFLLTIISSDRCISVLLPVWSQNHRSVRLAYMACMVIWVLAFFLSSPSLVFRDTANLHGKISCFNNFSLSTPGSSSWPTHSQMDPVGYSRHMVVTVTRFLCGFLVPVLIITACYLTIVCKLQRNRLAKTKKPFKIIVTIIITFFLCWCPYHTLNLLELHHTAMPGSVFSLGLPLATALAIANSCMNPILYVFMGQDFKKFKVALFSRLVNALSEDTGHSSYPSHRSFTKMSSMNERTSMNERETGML
Description: Whole cell lysates were resolved on 10% Tris/Tricine polyacrylamide gels and transferred to nitrocellulose membranes. […] Chemiluminescent detection was performed using ECL-Plus reagent (Perkin Elmer).
Results are expressed as the ratio between the amounts of phospho-ERK1/2 and total ERK1/2 following quantification. […] MEF cells were derived form β-Arr1 KO and WT1 or β-Arr2 KO and WT2 siblings.

[2] = target: T1, CMKLR1; assay: β-arrestin BRET recruitment assay, CMKLR1; parameters: expressed in transfected cells; host or cells: HEK293T; settings: CMKLR1, HEK293T; PTX pretreatment, 100 nM chemerin
Description: (§1) β-arrestin recruitment was measured by a BRET proximity assay as previously described. Briefly, plasmids encoding Rluc-β-arrestin 2 and receptors fused to Venus were cotransfected into HEK293T cells by using the calcium phosphate method. […] BRET^1 between RLuc and YFP was measured after the addition of coelenterazine h (5 μM, Promega).
(§2) Data represent the mean ± S.E.M. of three independent experiments.
as §2

[3] = target: T2, GPR1 (Homo sapiens, UniProt P46091); assay: ERK1/2 phosphorylation in MEF cells, GPR1; parameters: expressed in transfected cells; settings: PTX pre-treatment, 300 nM chemerin
T2 sequence (P46091 1-355): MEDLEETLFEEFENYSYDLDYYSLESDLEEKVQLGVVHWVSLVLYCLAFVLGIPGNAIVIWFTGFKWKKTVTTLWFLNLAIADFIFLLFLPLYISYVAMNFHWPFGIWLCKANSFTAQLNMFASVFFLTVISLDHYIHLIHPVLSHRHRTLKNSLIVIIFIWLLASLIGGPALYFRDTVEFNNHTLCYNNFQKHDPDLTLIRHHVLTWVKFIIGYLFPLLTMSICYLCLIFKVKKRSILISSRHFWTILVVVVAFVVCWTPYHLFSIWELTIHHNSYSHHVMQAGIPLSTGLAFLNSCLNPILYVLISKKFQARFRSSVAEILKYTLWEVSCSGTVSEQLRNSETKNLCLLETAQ
Description: CHO-K1 and MEF cells stably expressing receptors of interest were starved for 12–18 h in serum-free medium prior to stimulation. […] Whole cell lysates were resolved on 10% Tris/Tricine polyacrylamide gels and transferred to nitrocellulose membranes. Phosphorylated ERK1/2 and total ERK1/2 were detected by using rabbit polyclonal anti-phospho-ERK1/2 (Cell Signaling #4370, 1:1,000) and anti-ERK1/2 (Cell Signaling #4695S, 1:2,000) antibodies. Chemiluminescent detection was performed using ECL-Plus reagent (Perkin Elmer).
We next investigated the contribution of Gαi/o proteins and arrestins to ERK1/2 phosphorylation by using mouse embryonic fibroblast cells (MEF) deficient for the expression of arrestins (β-Arr1^-/- and β-Arr2^-/-) and stably expressing CMKLR1 or GPR1. […] However, we cannot rule out that the weak activation of G proteins by GPR1 contributes to ERK1/2 phosphorylation. We also must take into consideration that these assays display different levels of amplification and were performed in different cell types.
Fig 10 Contribution of Gi/o proteins and arrestins to CMKLR1- and GPR1-mediated ERK1/2 phosphorylation. […] Results are expressed as the ratio between the amounts of phospho-ERK1/2 and total ERK1/2 following quantification. […] Statistical significance was assessed using Tukey's test (***P < 0.0001; ** and ^## P< 0.001; * and ^# P< 0.01).

[4] = target: T2, GPR1; assay: β-arrestin BRET recruitment assay, GPR1; parameters: expressed in transfected cells; host or cells: HEK293T; settings: GPR1, HEK293T; PTX pretreatment, 100 nM chemerin
Description: as §1, §2, §2

Pertussis toxin
effect of PTX on ERK1/2 phosphorylation [1]: partially inhibited | effect of PTX on β-arrestin1 recruitment [2]: inhibits partially β-arrestin1 recruitment to CMKLR1 and GPR1 | effect of PTX on β-arrestin2 recruitment [2]: did not inhibit β-arrestin2 recruitment to CMKLR1 and GPR1 | effect of PTX on ERK1/2 phosphorylation [3]: partially inhibited | effect of PTX on β-arrestin1 recruitment [4]: inhibits partially β-arrestin1 recruitment to CMKLR1 and GPR1 | effect of PTX on β-arrestin2 recruitment [4]: did not inhibit β-arrestin2 recruitment to CMKLR1 and GPR1
